Tests used:
[1] = target: T1, Serine/threonine-protein kinase Nek9 (Homo sapiens) (UniProt Q8TD19); assay: Inhibition of NEK9 (unknown origin) at 1 uM relative to control
T1 sequence (whole entry): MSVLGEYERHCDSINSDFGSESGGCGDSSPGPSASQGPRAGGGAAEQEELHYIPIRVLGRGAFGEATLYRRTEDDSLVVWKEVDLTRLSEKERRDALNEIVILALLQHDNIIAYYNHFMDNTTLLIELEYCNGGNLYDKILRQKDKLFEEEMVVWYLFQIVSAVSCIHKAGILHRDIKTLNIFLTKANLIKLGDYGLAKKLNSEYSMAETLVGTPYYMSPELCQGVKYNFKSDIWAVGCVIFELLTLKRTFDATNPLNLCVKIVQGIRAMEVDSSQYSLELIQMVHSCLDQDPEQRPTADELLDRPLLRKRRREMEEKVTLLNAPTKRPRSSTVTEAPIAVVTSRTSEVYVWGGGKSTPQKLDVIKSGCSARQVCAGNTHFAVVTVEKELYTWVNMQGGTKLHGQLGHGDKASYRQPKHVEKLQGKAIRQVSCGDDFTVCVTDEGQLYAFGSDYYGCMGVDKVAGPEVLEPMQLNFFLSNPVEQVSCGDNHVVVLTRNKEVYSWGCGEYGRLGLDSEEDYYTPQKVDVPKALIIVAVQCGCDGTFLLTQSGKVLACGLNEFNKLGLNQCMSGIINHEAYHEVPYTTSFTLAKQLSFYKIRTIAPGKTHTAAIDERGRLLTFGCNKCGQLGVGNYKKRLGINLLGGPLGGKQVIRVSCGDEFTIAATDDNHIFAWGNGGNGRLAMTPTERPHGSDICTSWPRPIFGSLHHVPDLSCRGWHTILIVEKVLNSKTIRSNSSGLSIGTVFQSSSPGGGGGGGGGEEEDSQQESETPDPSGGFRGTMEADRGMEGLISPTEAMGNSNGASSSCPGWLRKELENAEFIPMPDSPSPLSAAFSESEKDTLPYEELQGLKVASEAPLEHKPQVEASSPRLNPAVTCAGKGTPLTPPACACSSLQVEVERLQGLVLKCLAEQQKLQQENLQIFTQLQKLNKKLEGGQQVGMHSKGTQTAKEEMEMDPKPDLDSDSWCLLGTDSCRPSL

[2] = target: T2, Serine/threonine-protein kinase Nek3 (Homo sapiens) (UniProt P51956); assay: Inhibition of NEK3 (unknown origin) at 1 uM relative to control
T2 sequence (whole entry): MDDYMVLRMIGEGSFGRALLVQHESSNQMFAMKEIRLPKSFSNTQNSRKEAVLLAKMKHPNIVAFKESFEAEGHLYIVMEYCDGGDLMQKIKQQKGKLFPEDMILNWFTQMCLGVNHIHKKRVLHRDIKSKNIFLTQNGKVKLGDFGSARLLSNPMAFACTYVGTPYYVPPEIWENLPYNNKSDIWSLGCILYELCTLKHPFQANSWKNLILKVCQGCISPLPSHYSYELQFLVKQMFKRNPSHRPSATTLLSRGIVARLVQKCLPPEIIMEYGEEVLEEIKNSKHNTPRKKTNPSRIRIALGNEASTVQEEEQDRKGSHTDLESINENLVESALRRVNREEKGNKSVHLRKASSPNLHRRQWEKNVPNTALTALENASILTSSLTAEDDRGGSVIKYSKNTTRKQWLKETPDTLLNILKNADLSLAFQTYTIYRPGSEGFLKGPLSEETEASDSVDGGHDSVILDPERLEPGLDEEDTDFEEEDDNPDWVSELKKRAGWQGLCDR

[3] = target: T3, Serine/threonine-protein kinase Nek5 (Homo sapiens) (UniProt Q6P3R8); assay: Inhibition of NEK5 (unknown origin) at 1 uM relative to control
T3 sequence (whole entry): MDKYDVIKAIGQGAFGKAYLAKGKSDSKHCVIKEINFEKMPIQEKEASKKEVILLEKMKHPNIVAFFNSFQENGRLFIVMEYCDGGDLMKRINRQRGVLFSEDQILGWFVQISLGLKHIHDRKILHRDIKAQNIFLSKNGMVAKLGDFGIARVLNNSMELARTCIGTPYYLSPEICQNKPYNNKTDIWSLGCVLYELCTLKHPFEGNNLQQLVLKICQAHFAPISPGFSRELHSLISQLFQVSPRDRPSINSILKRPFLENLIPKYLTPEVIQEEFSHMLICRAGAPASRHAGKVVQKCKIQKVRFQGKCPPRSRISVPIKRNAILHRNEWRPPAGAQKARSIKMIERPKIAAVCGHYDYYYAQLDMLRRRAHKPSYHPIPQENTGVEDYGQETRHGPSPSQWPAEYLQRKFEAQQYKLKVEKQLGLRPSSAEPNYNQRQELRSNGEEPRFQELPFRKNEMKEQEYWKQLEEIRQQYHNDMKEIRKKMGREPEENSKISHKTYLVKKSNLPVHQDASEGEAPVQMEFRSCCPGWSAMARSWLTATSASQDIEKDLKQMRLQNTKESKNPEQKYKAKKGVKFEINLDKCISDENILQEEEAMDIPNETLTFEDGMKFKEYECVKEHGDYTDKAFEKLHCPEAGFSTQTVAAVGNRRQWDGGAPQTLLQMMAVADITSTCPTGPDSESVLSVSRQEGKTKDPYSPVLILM

[4] = target: Serine/threonine-protein kinase Nek6 (Homo sapiens) (UniProt Q9HC98); assay: Inhibition of NEK6 (unknown origin) at 1 uM relative to control
[5] = target: T4, Serine/threonine-protein kinase Nek11 (Homo sapiens) (UniProt Q8NG66); assay: Inhibition of NEK11 (unknown origin) at 1 uM relative to control
T4 sequence (whole entry): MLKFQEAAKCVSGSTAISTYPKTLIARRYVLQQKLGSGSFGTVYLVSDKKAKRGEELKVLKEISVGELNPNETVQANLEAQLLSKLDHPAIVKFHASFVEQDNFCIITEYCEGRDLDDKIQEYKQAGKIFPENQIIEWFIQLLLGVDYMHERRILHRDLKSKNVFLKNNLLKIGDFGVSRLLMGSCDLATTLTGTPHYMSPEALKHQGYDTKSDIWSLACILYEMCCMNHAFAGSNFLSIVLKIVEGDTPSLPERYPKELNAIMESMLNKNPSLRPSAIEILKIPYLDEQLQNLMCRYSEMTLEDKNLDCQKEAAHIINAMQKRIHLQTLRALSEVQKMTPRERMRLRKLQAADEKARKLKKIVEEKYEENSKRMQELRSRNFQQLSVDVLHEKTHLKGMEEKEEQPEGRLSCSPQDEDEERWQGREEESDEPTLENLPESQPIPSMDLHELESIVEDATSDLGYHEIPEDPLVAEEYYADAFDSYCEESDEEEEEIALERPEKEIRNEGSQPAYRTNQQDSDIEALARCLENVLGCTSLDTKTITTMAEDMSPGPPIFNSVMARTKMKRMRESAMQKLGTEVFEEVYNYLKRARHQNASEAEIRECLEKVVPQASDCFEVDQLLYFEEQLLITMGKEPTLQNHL

Sequence of Serine/threonine-protein kinase Nek6 (Homo sapiens) (Q9HC98 whole entry): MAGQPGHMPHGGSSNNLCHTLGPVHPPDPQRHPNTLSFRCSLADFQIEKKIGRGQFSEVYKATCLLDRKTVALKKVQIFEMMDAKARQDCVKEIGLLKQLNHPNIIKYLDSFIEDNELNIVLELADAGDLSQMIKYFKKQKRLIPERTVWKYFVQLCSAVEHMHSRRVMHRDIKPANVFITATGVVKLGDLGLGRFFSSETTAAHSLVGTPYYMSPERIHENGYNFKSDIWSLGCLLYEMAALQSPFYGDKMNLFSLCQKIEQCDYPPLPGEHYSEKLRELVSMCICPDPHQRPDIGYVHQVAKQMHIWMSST

Compound | inhibition [1] | inhibition [2] | inhibition [3] | inhibition [4] | inhibition [5]
COc1cccc(C2=C(Nc3cccc(O)c3)C(=O)NC2=O)c1 | 15% | 19% | 2% | 0% | 0%
CS(=O)(=O)Nc1ccc(-c2ccnc3[nH]ccc23)cc1 | 14% | 4% | 2% | 0% | 17%
CC(C)c1nc(-c2cccc(NS(=O)(=O)c3c(F)cccc3F)c2F)c(-c2ccnc(Nc3ccc(N4CCOCC4)nc3)n2)s1 | 6.4% | 99% | 24% | 0.9% | 1.4%
Nc1ncc(-c2cccnc2)c2scc(-c3ccc4c(c3)CCN4C(=O)Cc3ccccc3)c12 | 28% | 1% | 22% | 8% | 44%
